# What was measured:
# Test in all cases: relative viability (nuclei count vs DMSO), 5 days (fraction); higher = more cells survive
# [1] = compound: CC1=C(C(=NN1)C)CC2=C(C3=C(S2)N(C(=O)N(C3=O)C)CC(C)C)C(=O)N4C[C@@H](CO4)O + Nc1ncn([C@H]2C[C@H](O)[C@@H](CO)O2)c(=O)n1 [Decitabine] (partner 2 µM)
# Method in brief: (§1)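 Lung cancer cell lines were seeded in 1536-well plates and dosed by pin tool the next day, with either a single drug or a fixed anchor-drug dose combined with five library-drug doses (not always all listed) spaced in √10 steps. Five days later, one step fixed the cells and stained their nuclei (final 0.05% Triton X-100, 1% formaldehyde, 1 ug/ml Hoechst), and nuclei were counted on 4× images. Relative viability is the nuclei count in treated wells divided by the count in vehicle wells, and each value is the median of duplicate plates.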
# [2] = compound: CC1=C(C(=NN1)C)CC2=C(C3=C(S2)N(C(=O)N(C3=O)C)CC(C)C)C(=O)N4C[C@@H](CO4)O + CCNC(=O)c1noc(-c2cc(C(C)C)c(O)cc2O)c1-c1ccc(CN2CCOCC2)cc1 [Luminespib] (partner 0.01 µM)
# Method in brief: as §1
# [3] = compound: CC1=C(C(=NN1)C)CC2=C(C3=C(S2)N(C(=O)N(C3=O)C)CC(C)C)C(=O)N4C[C@@H](CO4)O + N=C(N)NC(=N)NCCc1ccccc1 [Phenformin] (partner 250 µM)
# Method in brief: as §1
# [4] = compound: Cc1ccccc1C(C(=O)NC1CCCCC1)N(C(=O)Cn1ccnc1C)c1cccc(F)c1 [IDH-C35] + C[C@]1(O)C[C@@H](c2nc(-c3ccc4ccc(-c5ccccc5)nc4c3)c3c(N)nccn32)C1 [Linsitinib] (partner 1 µM)
# Method in brief: as §1
Cell Line,relative viability ([1]; first compound 0.0025 µM),relative viability ([1]; first compound 0.007906 µM),relative viability ([1]; first compound 0.025 µM),relative viability ([1]; first compound 0.07906 µM),relative viability ([1]; first compound 0.25 µM),relative viability ([2]; first compound 0.0025 µM),relative viability ([2]; first compound 0.007906 µM),relative viability ([2]; first compound 0.025 µM),relative viability ([2]; first compound 0.07906 µM),relative viability ([2]; first compound 0.25 µM),relative viability ([3]; first compound 0.0025 µM),relative viability ([3]; first compound 0.007906 µM),relative viability ([3]; first compound 0.025 µM),relative viability ([3]; first compound 0.07906 µM),relative viability ([3]; first compound 0.25 µM),relative viability ([4]; first compound 0.08 µM),relative viability ([4]; first compound 0.253 µM),relative viability ([4]; first compound 0.8 µM),relative viability ([4]; first compound 2.53 µM),relative viability ([4]; first compound 8 µM)
NCI-H2347,0.638,0.649,0.608,0.56,0.662,0.563,0.371,0.447,0.362,0.246,0.455,0.429,0.295,0.275,0.264,0.973,0.932,1.01,0.987,0.918
NCI-H2009,0.412,0.408,0.342,0.418,0.407,1.07,1.06,1.06,1.13,1.02,0.487,0.484,0.455,0.557,0.503,1.18,1.24,1.16,1.23,1.14
HCC-15,0.707,0.621,0.692,0.662,0.781,0.378,0.518,0.236,0.43,0.337,0.486,0.49,0.46,0.482,0.518,0.866,0.828,0.788,0.835,0.764
HCC-44,0.978,0.961,0.949,0.912,1.06,0.97,1.11,1.03,0.958,1.38,0.263,0.223,0.142,0.208,0.225,0.656,0.628,0.647,0.876,0.69
COR-L23,0.439,0.41,0.406,0.304,0.381,0.756,0.744,0.666,0.549,0.765,0.397,0.395,0.342,0.355,0.344,0.828,0.896,0.913,0.889,0.886
NCI-H727,0.807,0.915,0.862,0.943,0.969,0.309,0.378,0.387,0.369,0.387,0.424,0.504,0.486,0.489,0.372,0.202,0.248,0.328,0.249,0.254
NCI-H2087,0.315,0.28,0.274,0.295,0.248,0.142,0.217,0.175,0.168,0.16,0.45,0.474,0.395,0.471,0.447,1.03,0.826,0.744,0.87,0.881
BEN,0.626,0.708,0.613,0.622,0.614,0.235,0.383,0.242,0.335,0.325,0.223,0.166,0.221,0.18,0.206,0.831,0.899,0.813,0.906,0.99
LCLC-103H,0.753,0.746,0.766,0.644,0.701,0.966,0.885,0.976,0.939,1.1,0.329,0.367,0.393,0.341,0.317,1.21,1.01,0.98,1.13,1.07
EKVX,0.365,0.311,0.309,0.267,0.369,0.948,0.955,0.852,0.764,0.928,0.241,0.224,0.233,0.243,0.227,1.05,1.09,0.957,0.988,1.01
LXF-289,0.432,0.395,0.354,0.393,0.443,0.774,0.684,0.56,0.613,0.783,0.525,0.52,0.532,0.537,0.556,0.94,0.971,0.936,0.949,0.956
ABC-1,0.988,0.899,,0.889,0.779,,0.606,,0.349,0.531,0.18,0.174,0.173,0.186,0.214,0.898,0.856,0.913,0.767,0.746
NCI-H650,0.321,0.39,0.336,0.329,0.361,0.84,0.798,0.72,0.829,0.951,0.499,0.431,0.4,0.458,0.472,1.09,1.05,0.799,,0.771
NCI-H2085,0.526,0.543,0.536,0.473,0.661,0.443,0.412,0.412,0.41,0.343,0.677,0.674,0.589,0.571,0.44,0.807,0.815,0.922,0.992,0.846
NCI-H1793,0.295,0.517,0.471,0.449,0.524,0.608,0.17,0.208,0.164,0.187,0.211,0.213,0.138,0.138,0.135,0.908,0.808,0.859,0.85,0.773
LC-2-ad,0.776,0.8,0.877,0.8,0.871,0.967,1.13,0.968,1.01,1.17,0.604,0.59,0.528,0.573,0.648,0.867,0.829,0.774,0.875,0.886

# Source: the supplement of paper PMC10307832
